Like-named read-outs stand apart in the source and are kept apart here. One block for each compound: values may come before it.
What was measured:
[1] = tested on: A549 cells; conditions: cited from earlier work
[2] = tested on: both non-cancer and cancer cells; assay: WST-1 cell viability, non-cancer and cancer cells together; assay type: cell-based; conditions: against both non-cancer and cancer cells
Protocol: Cell viability was assessed using the WST-1 assay, based on a previously reported method with slight modifications [54]. […] The cells used included non-cancer cells (MEF, AML12, WI-38, and THLE-2) and cancer cells (A549, HEPG2, HEP3B, BxPC3, U87, DU145, MCF7, HeLa, and HCT116). The WST-1 reagent (Roche, Shanghai, China) was added to each well (10% vol/vol final concentration), followed by incubation for 3 h at 37 °C. Absorbance at OD450 was measured using a microplate reader (Synergy H1; BioTek Instruments, Winooski, VT, USA).

[3] = tested on: A549 cells; assay: Chromosome staining experiment; assay type: cell-based, human; conditions: A549, 5 μM DOX or 25 μM JH62 for 6 h
Protocol: Metaphase chromosome spreads were prepared from A549 cells. Briefly, A549 cells were cultured. After treatment with JH62 or DOX, cells were incubated with Colcemid (Gibco BRL; 0.2 μg/mL final concentration) for 2 h to arrest cells in metaphase. Cells were then subjected to hypotonic treatment in KCl (0.075 M) at 37 °C for 5 min, and fixed by repeated washing with ice-cold freshly prepared 3:1 (vol/vol) methanol:acetic acid. Chromosome spreads were prepared on premarked glass slides using the “drop-cryo” protocol. The chromosome suspension was dropped onto a slide. This was followed by adding three drops of 45% acetic acid and placing a coverslip over the suspension. The slide was then inverted and placed on dry ice for 15 min. The spreads were postfixed in 2.5% glutaraldehyde in cacodylate buffer (pH 7.4, 75 mM) for 15 min and washed with cacodylate buffer (0.1 M). The chromosomes were stained with Vista Green DNA dye (Cell Biolabs, Singapore). After staining, the preparations were washed in water for 5, 10, and 15 min, then dehydrated using a series of ethanol solutions as follows: 5 min in a 70% solution, 10 min in an 85% solution, and 15 min in 100% ethanol. Finally, slides were mounted with a permanent mounting medium, sealed, and analyzed by microscopy.

[4] = tested on: HeLa: human cervical cancer cell lines; assay: WST-1 cell viability, HeLa; assay type: cell-based; conditions: HeLa (cervical) cancer cell line
Excerpt: (§1) Different cells were utilized as follows: MEF: murine embryonic fibroblast (RRID: CVCL_L690); AML12: mouse liver cell lines (RRID: CVCL_0140); WI-38: human lung fibroblast cell lines (RRID: CVCL_0579); THLE-2: human liver epithelial cell lines (RRID: CVCL_3803); A549: human lung cancer cell lines (RRID: CVCL_0023); HEPG2: human liver cancer cell lines (RRID: CVCL_0027); HEP3B: human hepatoma cell lines (RRID: CVCL_0326); BxPC3: human pancreatic cancer cell lines (RRID: CVCL_0186); U87: human primary glioblastoma cell lines (RRID: CVCL_0022); DU145: human prostate cancer cell lines (RRID: CVCL_0105); MCF7: human breast cancer cell lines (RRID: CVCL_0031); HeLa: human cervical cancer cell lines (RRID: CVCL_0030); HCT116: human colon cancer cell lines (RRID: CVCL_0291). Cells were maintained in Dulbecco’s modified Eagle’s medium (DMEM, Gibco) supplemented with L-glutamine (Lonza) (2 mM), 10% fetal bovine serum (FBS, Hyclone), 1 × non-essential amino acids, and sodium pyruvate (1 mM). THLE-2 cells were maintained in THLE-2 Cell Complete Medium (Zhong Qiao Xin Zhou, Shanghai, China). Cells were incubated at 37 °C in a humidified incubator with 5% CO2. […]
(§2) Cell viability was assessed using the WST-1 assay, based on a previously reported method with slight modifications. […] Absorbance at OD450 was measured using a microplate reader (Synergy H1; BioTek Instruments, Winooski, VT, USA).

[5] = tested on: U87: human primary glioblastoma cell lines; assay: WST-1 cell viability, U87; assay type: cell-based; conditions: U87 (glioblastoma) cancer cell line
Excerpt: as §1, §2

[6] = tested on: DU145: human prostate cancer cell lines; assay: WST-1 cell viability, DU145; assay type: cell-based; conditions: DU-145, DU145 (prostate) cancer cell line
Excerpt: as §1, §2

[7] = tested on: MCF7: human breast cancer cell lines; assay: WST-1 cell viability, MCF7; assay type: cell-based; conditions: MCF7 (breast) cancer cell line
Excerpt: as §1, §2

[8] = tested on: A549 cells; assay: DNA fragmentation analysis (genomic DNA electrophoresis); assay type: cell-based, human; conditions: A549, 24 h; JH62 5–100 µM, DOX 1 and 5 μM
Protocol: Genomic DNA fragmentation was analyzed by agarose gel electrophoresis using previously described methods. A549 cells were seeded in 6 cm tissue culture dishes and cultured overnight. Before treatment with JH62 or DOX, the cells were cultured in DMEM lacking FBS for 16 h. After treatment, the cells were then washed three times with PBS and genomic DNA was extracted using a MasterPure™ DNA Purification Kit (Lucigen Corporation, Middleton, WI, USA). The DNA pellet was airdried and resuspended in Tris-HCl (pH 8.0, 10 mM). DNA samples (2.5 μg) were separated by 1% agarose gel electrophoresis in TAE buffer containing ethidium bromide.

[9] = tested on: BxPC3: human pancreatic cancer cell lines; assay: WST-1 cell viability, BxPC3; assay type: cell-based; conditions: BXPC-3, BxPC3 (pancreatic) cancer cell line
Excerpt: as §1, §2

[10] = tested on: cancer cell lines; assay: WST-1 cell viability, panel of cancer cell lines; assay type: cell-based; conditions: Homo sapiens; across the tested cancer cell lines
Protocol: (§3) Cell viability was assessed using the WST-1 assay, based on a previously reported method with slight modifications. Briefly, cells were seeded at 1 × 10^4 cells per well in 96-well plates and then treated with different doses of JH62 or DOX for 0–72 h. The cells used included non-cancer cells (MEF, AML12, WI-38, and THLE-2) and cancer cells (A549, HEPG2, HEP3B, BxPC3, U87, DU145, MCF7, HeLa, and HCT116). The WST-1 reagent (Roche, Shanghai, China) was added to each well (10% vol/vol final concentration), followed by incubation for 3 h at 37 °C. Absorbance at OD450 was measured using a microplate reader (Synergy H1; BioTek Instruments, Winooski, VT, USA).

[11] = tested on: HCT116: human colon cancer cell lines; assay: WST-1 cell viability, HCT116; assay type: cell-based; conditions: HCT-116, HCT116 (colon) cancer cell line
Excerpt: as §1, §2

[12] = tested on: HEP3B: human hepatoma cell lines; assay: WST-1 cell viability, HEP3B; assay type: cell-based; conditions: HEP3B (liver) cancer cell line
Excerpt: as §1, §2

[13] = tested on: WI-38: human lung fibroblast cell lines; assay: WST-1 cell viability, WI-38; assay type: cell-based; conditions: WI-38, non-cancer cell line
Excerpt: as §1, §2

[14] = tested on: A549: human lung cancer cell lines; assay: WST-1 cell viability, A549; assay type: cell-based; conditions: Homo sapiens, A549, A549 (lung) cancer cell line, WST-1
Excerpt: Different cells were utilized as follows: MEF: murine embryonic fibroblast (RRID: CVCL_L690); AML12: mouse liver cell lines (RRID: CVCL_0140); WI-38: human lung fibroblast cell lines (RRID: CVCL_0579); THLE-2: human liver epithelial cell lines (RRID: CVCL_3803); A549: human lung cancer cell lines (RRID: CVCL_0023); HEPG2: human liver cancer cell lines (RRID: CVCL_0027); HEP3B: human hepatoma cell lines (RRID: CVCL_0326); BxPC3: human pancreatic cancer cell lines (RRID: CVCL_0186); U87: human primary glioblastoma cell lines (RRID: CVCL_0022); DU145: human prostate cancer cell lines (RRID: CVCL_0105); MCF7: human breast cancer cell lines (RRID: CVCL_0031); HeLa: human cervical cancer cell lines (RRID: CVCL_0030); HCT116: human colon cancer cell lines (RRID: CVCL_0291). Cells were maintained in Dulbecco’s modified Eagle’s medium (DMEM, Gibco) supplemented with L-glutamine (Lonza) (2 mM), 10% fetal bovine serum (FBS, Hyclone), 1 × non-essential amino acids, and sodium pyruvate (1 mM). THLE-2 cells were maintained in THLE-2 Cell Complete Medium (Zhong Qiao Xin Zhou, Shanghai, China). Cells were incubated at 37 °C in a humidified incubator with 5% CO2. A549 cells were previously stored in the lab and other cell lines were a gift from Haishan Wang’s lab (Institute of Molecular and Cell Biology, Singapore). All cell lines were confirmed to be contamination-free.
as §3

[15] = tested on: THLE-2: human liver epithelial cell lines; assay: WST-1 cell viability, THLE-2; assay type: cell-based; conditions: THLE-2, non-cancer cell line
Excerpt: as §1, §2

[16] = tested on: A549 cells; assay: Comet assay; assay type: cell-based, human; conditions: A549, 1, 8, and 12 h
Protocol: Residual DNA damage was detected by alkaline single cell gel electrophoresis (Comet Assay) using the Trevigen Comet Assay Kit (Trevigen, Gaithersburg, MD, USA) following the manufacturer’s protocol with slight modifications. […] The treated cells were trypsinized and pelleted by centrifugation. The cell pellets were washed and resuspended in 2 mL of ice-cold PBS. The cell suspension was mixed 1:10 (vol/vol) with low-melting point agar at 42 °C and immediately pipetted onto a CometSlide™. Slides were incubated at 4 °C in the dark for 30 min, immersed in chilled lysis solution and incubated again at 4 °C for 30 min. Slides were placed in a horizontal electrophoresis chamber and electrophoresed with buffer NaOH (0.3 M) and EDTA (1 mM) at 1 V/cm for 15 min. Samples were dried and stained with Vista Green DNA dye (Cell Biolabs, Singapore). Comet tails were imaged using a model DM 2500 fluorescent microscope (Leica, Wetzlar, Germany) and quantified by Komet 5.5 software (Andor Technology, Belfast, UK). A minimum of 50 cells were scored per treatment. All experiments were performed independently in triplicate.

[17] = tested on: non-cancer cells (MEF, AML12, WI-38, and THLE-2); assay: WST-1 cell viability, panel of non-cancer cells; assay type: cell-based; conditions: across non-cancer cells (MEF, AML12, WI-38, and THLE-2)
Protocol: as §3

[18] = tested on: MEF: murine embryonic fibroblast; assay: WST-1 cell viability, MEF; assay type: cell-based; conditions: Mus musculus, non-cancer cell line
Excerpt: as §1, §2

[19] = tested on: HEPG2: human liver cancer cell lines; assay: WST-1 cell viability, HEPG2; assay type: cell-based; conditions: HEPG2 (liver) cancer cell line
Excerpt: as §1, §2

[20] = tested on: AML12: mouse liver cell lines; assay: WST-1 cell viability, AML12; assay type: cell-based; conditions: AML12, non-cancer cell line
Excerpt: as §1, §2

[21] = tested on: HeLa; set-up: method as in PMID 8823519; conditions: HeLa ref 87; cited from earlier work
[22] = clinically successful drugs; cited from earlier work

SMILES: Oc1cccc2cccnc12 [8-hydroxyquinoline]
- IC50 ([1]; A549 ref 85): 26 µM

- chromosome morphology [3]: fragmented and adhered together
- IC50 [4]: 0.7 ± 0.7 µM
- IC50 [5]: 1.4 ± 1 µM
- IC50 [6]: 1.9 ± 0.2 µM
- IC50 [7]: 1.2 ± 0.5 µM
- genomic DNA integrity (electrophoresis) [8]: obvious DNA fragmentation
- IC50 [9]: 1.9 ± 0.1 µM
- IC50 [10]: 0.7 to 3.9 µM
- IC50 [11]: 3.9 ± 0.7 µM
- IC50 [12]: 3.3 ± 0.2 µM
- IC50 [14]: 2.1 ± 0.5 µM
- comet tail analysis [16]: distinct and typical comet tail
- IC50 [19]: 0.8 ± 0.1 µM
SMILES: COc1cccc2c1C(=O)c1c(O)c3c(c(O)c1C2=O)C[C@@](O)(C(=O)CO)C[C@@H]3O[C@H]1C[C@H](N)[C@H](O)[C@H](C)O1 [DOX, Doxorubicin, reference compound]
- IC50 [2]: 0.5 to 5 µM
- IC50 [13]: 1.9 ± 0.3 µM
- IC50 [15]: 1.2 ± 0.1 µM
- IC50 [17]: 1.2 to 5.1 µM
- IC50 [18]: 3.9 ± 0.4 µM
- IC50 [20]: 5.1 ± 1.3 µM

SMILES: CCCCCC/C=C/Cc1c(C)c(=O)c2ccccc2n1O [E-1-hydroxy-2-(non-2-enyl)-3-methyl-4-quinolone]
- IC50 [21]: 1.9 µM

SMILES: CCCCCCCc1[nH]c2ccccc2c(=O)c1O [PQS, 2-heptyl-3-hydroxy-4(1H)-quinolone]
- IC50 ([1]; A549 cells ref 82,83): 19 µM

SMILES: O=C1NC(=O)C(c2ccccc2)(c2ccccc2)N1 [phenytoin]
- PPB [22]: exceeding 98%
